According to US20130109620A1, “BALAGLITAZONE COMPOSITIONS AND METHODS” (RHEOSCIENCE A/S, priority 2009, published 2013):
Where a name gives a salt, the structure may show the parent alone. Read-outs that look alike come from different tables or passages of the source.

Columns and labels:
[1] = system: T2D patients on stable insulin therapy; test: 26-week clinical study: serum biochemistry (ALP, lipids, NT-proBNP); assay type: in vivo, human; settings: 26 weeks
Method: All tablets were contained in an identical capsule. Subjects, study-site personnel, and sponsors were all blinded. One screening visit was conducted four weeks before randomization, and at week zero, subjects meeting the inclusion and exclusion criteria were assessed for safety. Subjects visited the clinics at the screening visit, at baseline, and at weeks 4, 8, 12, 16, 20 and 26. At each visit, fasting blood samples were collected for analysis of glycemic control, lipids, and clinical chemistry. All laboratory analyses were performed by a central laboratory.

[2] = system: T2D patients on stable insulin therapy; test: 26-week clinical study: systolic and diastolic blood pressure; assay type: in vivo, human; settings: 26 weeks, placebo −1.7
Text: (§1) All tablets were contained in an identical capsule. Subjects, study-site personnel, and sponsors were all blinded.
Any abnormalities were registered.

[3] = system: T2D patients on stable insulin therapy; test: 26-week clinical study: glycemic control (HbA1c, FSG, 7-point glucose, serum insulin, insulin dose); assay type: in vivo, human; settings: for HbA1c level decrease compared to placebo / post-prandial glucose reduction (7-point glucose test) compared to placebo / fasting serum glucose (FSG) reduction compared to placebo: 26 weeks
Text: Subjects were required to meet the following criteria to be included in the study: type 2 diabetes mellitus being diagnosed at least three months earlier according to the 1999 World Health Organisation criteria; age ≧18 years; body mass index (“BMI”)≧25 kg/m^2; HbA1c≧7%; and treatment with insulin on a stable dose of at least 30 U/day (±4 U/day), for at least 75 days, although insulin adjustments to resolve short term acute disease were permitted. […] All tablets were contained in an identical capsule. Subjects, study-site personnel, and sponsors were all blinded. One screening visit was conducted four weeks before randomization, and at week zero, subjects meeting the inclusion and exclusion criteria were assessed for safety. Subjects visited the clinics at the screening visit, at baseline, and at weeks 4, 8, 12, 16, 20 and 26. At each visit, fasting blood samples were collected for analysis of glycemic control, lipids, and clinical chemistry. All laboratory analyses were performed by a central laboratory. Subjects were instructed to keep their usual diet. They were supplied with a plasma glucose meter and instructed regarding how to obtain 7-point plasma glucose profiles. The values of the 7-point measurement performed within the last week before visits 2, 3, 4, 5, 6, 7 and 8 were included in the study. The 7-point plasma glucose profile consisted of glucose levels before each meal (breakfast, lunch, and dinner), 90 minutes after the start of each of those meals, and at bedtime.

[4] = subjects on stable insulin therapy, 24-week period, reference (28), cited from earlier work
[5] = system: T2D patients on stable insulin therapy; test: 26-week clinical study: adverse events and tolerability; settings: for subjects with AEs of special interest (strain on the heart or bone fractures): placebo 12%; for subjects who withdrew due to an AE: placebo 15%
[6] = system: T2D patients on stable insulin therapy; test: 26-week clinical study: lower leg volume by volume of water displacement (VWD); assay type: in vivo, human; settings: 26 weeks
Method: as §1
Lower leg volume of both legs was determined using the volume of water displacement (“VWD”) method at visits 2 and 8, using Partial Leg Baseline Volumetric Edema Gauges (26).

[7] = 26-week clinical study: body weight; assay type: in vivo, human; settings: 26 weeks, p<0.0001
Text: as §1

[8] = system: T2D patients on stable insulin therapy; test: 26-week clinical study: body composition and total body BMD by DXA; assay type: in vivo, human; settings: 26 weeks
Method: All tablets were contained in an identical capsule. Subjects, study-site personnel, and sponsors were all blinded. Body composition was measured by Dual Energy X-ray Absorptiometry (“DXA”) on visits 2 and 8, in which total body lean (“LTM”), fat tissue mass (“FTM”), and bone mineral density (“BMD”) were measured. Subjects were instructed to fast, beginning at 10 PM the night before body composition measurements. […] The scans were conducted using Lunar DPX (GE Healthcare Worldwide), Hologic™ (Hologic™, Hologic (UK) Limited, UK), or Norland (Norland Medical Systems, Inc.) whole body scanners, and each individual was scanned with the same scanner at both visits.

[9] = pioglitazone 45 mg once daily, p<0.0001
[10] = balaglitazone 10 mg once daily, p<0.01
[11] = balaglitazone 20 mg once daily, p<0.0001

CCc1ccc(CCOc2ccc(CC3SC(=O)NC3=O)cc2)nc1 (racemic) [pioglitazone, [(±)-5-[[4-[2-(5-ethyl-2-pyridinyl)ethoxy]phenyl]methyl]-2,4-]thiazolidinedione monohydrochloride, reference compound]
serum NT-proBNP compared to placebo ([1]; pioglitazone 45 mg once daily): significant increase
systolic blood pressure reduction ([2]; pioglitazone 45 mg once daily, SE 0.9): −3.0 mmHg
diastolic blood pressure reduction ([2]; pioglitazone 45 mg once daily, SE 1.5): −3.9 mmHg
HbA1c level decrease compared to placebo [3, 9]: −1.22%
post-prandial glucose reduction (7-point glucose test) compared to placebo [3, 9]: -2.6 mmol/L
fasting serum glucose (FSG) reduction compared to placebo ([3]; pioglitazone 45 mg once daily, p<0.05): -1.4 mmol/L
weight increase ([4]; pioglitazone 30 mg): 2.9 kg
weight increase ([4]; pioglitazone 45 mg): 3.4 kg
influenza, total number of events ([5]; pioglitazone 45 mg group): 10
number of heart failures ([5]; pioglitazone 45 mg group): 3
subjects reporting adverse events ([5]; pioglitazone 45 mg group, out of 102 subjects): 75 subjects
subjects reporting influenza ([5]; pioglitazone 45 mg group, placebo 3%): 9%
subjects reporting nasopharyngitis ([5]; pioglitazone 45 mg group, placebo 10%): 3%
subjects with AEs of special interest (strain on the heart or bone fractures) ([5]; pioglitazone 45 mg group): 25%
subjects who withdrew due to an AE ([5]; pioglitazone 45 mg group): 8%
lower leg volume (VWD) compared with placebo ([6]; pioglitazone 45 mg once daily): significantly increased lower leg volume
body weight increase compared to placebo ([7]; pioglitazone 45 mg once daily): 4.5 kg
total body bone mineral density (TB-BMD) compared with placebo ([8]; pioglitazone 45 mg once daily, no significant change): trend toward loss of bone

Cn1c(COc2ccc(CC3SC(=O)NC3=O)cc2)nc2ccccc2c1=O (stereo not shown) [balaglitazone, 5[4-(3-methyl-4-oxo-3,4-dihydroquinazolin-2-ylmethoxy)-benzyl]-thiazolidine-2,4-dione]
LDL cholesterol levels and total cholesterol ([1]; balaglitazone 10 mg and 20 mg): neither LDL cholesterol levels nor total cholesterol changed
HDL cholesterol levels compared to placebo ([1]; balaglitazone 10 mg and 20 mg, p<0.001 for both groups): significantly increased
reduction in serum ALP compared to the pioglitazone 45 mg group ([1]; balaglitazone 10 mg once daily): significantly smaller
serum NT-proBNP compared to placebo ([1]; balaglitazone 10 mg once daily): only a trend was observed
serum NT-proBNP compared to placebo ([1]; balaglitazone 20 mg once daily): significant increase
increase in NT-proBNP compared to the pioglitazone 45 mg group ([1]; balaglitazone 20 mg once daily, p<0.01): significantly larger
diastolic blood pressure reduction ([2]; balaglitazone 10 mg once daily, SE 0.9): −1.8 mmHg
diastolic blood pressure reduction ([2]; balaglitazone 20 mg once daily, SE 1.0): −2.2 mmHg
glucose-lowering capabilities compared to pioglitazone 45 mg ([3]; balaglitazone 10 mg dose): equipotent
HbA1c level decrease compared to placebo ([3]; balaglitazone 10 mg once daily, p<0.0001): −0.99%
post-prandial glucose reduction (7-point glucose test) compared to placebo [3, 10]: -1.6 mmol/L
fasting serum glucose (FSG) reduction compared to placebo ([3]; balaglitazone 10 mg once daily, p=0.01): -1.4 mmol/L
HbA1c level decrease compared to placebo [3, 11]: −1.11%
post-prandial glucose reduction (7-point glucose test) compared to placebo [3, 11]: -2.5 mmol/L
fasting serum glucose (FSG) reduction compared to placebo ([3]; balaglitazone 20 mg once daily, p<0.001): -1.8 mmol/L
tolerability throughout the study ([5]; balaglitazone 10 mg and 20 mg, 26 weeks): well-tolerated
heart failure, peripheral oedema and myocardial infarction compared to the remaining groups ([5]; balaglitazone 10 mg group): numerically lower
number of heart failures ([5]; balaglitazone 10 mg group): 0
percentage of serious adverse events ([5]; balaglitazone 10 mg group): 6%
subjects reporting adverse events ([5]; balaglitazone 10 mg group, out of 99 subjects): 81 subjects
subjects with AEs of special interest (strain on the heart or bone fractures) ([5]; balaglitazone 10 mg group): 10%
subjects who withdrew due to an AE ([5]; balaglitazone 10 mg group): 16%
percentage of serious adverse events ([5]; balaglitazone 20 mg group): 11%
subjects reporting adverse events ([5]; balaglitazone 20 mg group, out of 99 subjects): 77 subjects
subjects with AEs of special interest (strain on the heart or bone fractures) ([5]; balaglitazone 20 mg group): 19%
subjects who withdrew due to an AE ([5]; balaglitazone 20 mg group): 17%
number of fractures observed ([5]; balaglitazone 20 mg group, the only fracture in the study): one
lower leg volume (VWD) compared with placebo ([6]; balaglitazone 10 mg once daily): no significant increase in leg volume
lower leg volume (VWD) compared with placebo ([6]; balaglitazone 20 mg once daily): significantly increased lower leg volume
body weight increase compared to placebo ([7]; balaglitazone 10 mg once daily): 3.1 kg
body weight increase compared to placebo ([7]; balaglitazone 20 mg once daily): 4.7 kg
total body bone mineral density (TB-BMD) compared to placebo ([8]; balaglitazone 10 mg and 20 mg groups): neither of the balaglitazone groups showed any indication of bone loss
whole body fat accumulation compared to pioglitazone 45 mg ([8]; balaglitazone 10 mg once daily): trend toward lower fat accumulation
fat mass gain in the legs compared to the pioglitazone group [8, 10]: significantly less fat mass
